Data: ChEMBL document CHEMBL1155398, “Design and evaluation of Trypanosoma brucei metacaspase inhibitors” (Bioorg Med Chem Lett, 2010)
Active and inactive are the calls of the source. The calls are words filed in the database; no cut-off is given here.

What was measured:
Metacaspase-2 = target: T1, Metacaspase-2 (Trypanosoma brucei, UniProt Q8T8E7); experiment: Inhibition of Trypanosoma brucei MAC2
T1 sequence (Q8T8E7 whole entry): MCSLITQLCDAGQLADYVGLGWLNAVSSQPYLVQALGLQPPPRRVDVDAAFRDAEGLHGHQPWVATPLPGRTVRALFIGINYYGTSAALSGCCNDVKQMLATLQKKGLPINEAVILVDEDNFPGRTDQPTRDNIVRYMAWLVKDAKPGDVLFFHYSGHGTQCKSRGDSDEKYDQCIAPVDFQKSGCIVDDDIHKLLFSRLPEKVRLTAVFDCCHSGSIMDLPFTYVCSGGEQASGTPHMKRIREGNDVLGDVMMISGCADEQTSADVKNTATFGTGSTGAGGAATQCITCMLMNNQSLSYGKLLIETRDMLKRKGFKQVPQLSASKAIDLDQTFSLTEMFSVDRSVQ

[1] = tested on: Trypanosoma brucei brucei; experiment: Antiparasitic activity against Trypanosoma brucei brucei bloodstream form; format: functional, organism-based
Trypanosoma cruzi = experiment: Antiparasitic activity against Trypanosoma cruzi amastigotes; format: functional, organism-based
Leishmania infantum = experiment: Antiparasitic activity against Leishmania infantum amastigotes; format: functional, organism-based
Plasmodium falciparum = experiment: Antiparasitic activity against Plasmodium falciparum ring stage and schizont; format: functional, organism-based
MRC5 = experiment: Cytotoxicity against human MRC5 cells; format: cell-based
[2] = target: T2, Metacaspase-3 (Trypanosoma brucei) (UniProt Q8T8E6); experiment: Inhibition of Trypanosoma brucei MAC3
T2 sequence (whole entry): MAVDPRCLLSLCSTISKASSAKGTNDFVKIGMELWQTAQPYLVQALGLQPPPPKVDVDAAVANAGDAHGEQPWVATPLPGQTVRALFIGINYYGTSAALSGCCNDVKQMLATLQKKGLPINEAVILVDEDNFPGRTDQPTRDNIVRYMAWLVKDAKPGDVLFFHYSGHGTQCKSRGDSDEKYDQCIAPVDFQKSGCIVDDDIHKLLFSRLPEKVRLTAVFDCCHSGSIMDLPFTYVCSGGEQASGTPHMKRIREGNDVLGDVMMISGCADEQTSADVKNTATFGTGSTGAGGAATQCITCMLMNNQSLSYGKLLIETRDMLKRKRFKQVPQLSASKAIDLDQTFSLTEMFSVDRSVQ

Caspase-3 (Homo sapiens) = target: T3, Caspase-3 (Homo sapiens) (UniProt P42574); experiment: Inhibition of human caspase 3
T3 sequence (whole entry): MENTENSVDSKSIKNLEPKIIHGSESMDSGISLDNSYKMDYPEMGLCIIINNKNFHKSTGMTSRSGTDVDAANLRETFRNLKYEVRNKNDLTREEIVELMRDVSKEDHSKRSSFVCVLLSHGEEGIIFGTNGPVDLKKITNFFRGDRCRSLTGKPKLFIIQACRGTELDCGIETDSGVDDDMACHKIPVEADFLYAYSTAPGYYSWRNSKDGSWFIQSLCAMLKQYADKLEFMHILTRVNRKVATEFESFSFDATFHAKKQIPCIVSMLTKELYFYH

SMILES | IC50 (Metacaspase-2) | IC50 [1] | IC50 (Trypanosoma cruzi) | IC50 (Leishmania infantum) | IC50 (Plasmodium falciparum) | IC50 (MRC5) | inhibition [2] | inhibition (Caspase-3 (Homo sapiens))
NC(N)=NCCCC[C@H](NC(=O)OCc1ccccc1)C(=O)c1nc2ccccc2s1 | 4 µM | 11.4 µM | 5.5 µM | 45.4 µM | 5.6 µM | 19 µM | – | –
N=C(N)NCCC[C@H](NC(=O)OCc1ccccc1)C(=O)c1nccs1 | 2.2 µM | > 64 µM | 38.7 µM | > 64 µM | 24.7 µM | > 64 µM | Active | –
Cn1c(C(=O)[C@H](CCCNC(=N)N)NC(=O)OCc2ccccc2)nc2ccccc21 | 38.4 µM | 32.5 µM | 28.3 µM | > 64 µM | 7.1 µM | > 64 µM | Active | inactive
N#CCN(CCCCN1CCN(c2ccc(F)cc2)CC1)C(=O)OCc1ccccc1 | > 100 µM | 22.6 µM | 7 µM | > 64 µM | > 64 µM | > 64 µM | – | –
N#CCN(CCCCO)C(=O)OCc1ccccc1 | > 100 µM | > 64 µM | > 64 µM | > 64 µM | > 64 µM | > 64 µM | – | –
N=C(N)NCCC[C@H](NC(=O)OCc1ccccc1)C(=O)c1nc2ccccc2s1 | 0.6 µM | 32.9 µM | 20.9 µM | > 64 µM | 8 µM | > 64 µM | Active | inactive
N#CCN(CCCCN1CCCC1)C(=O)OCc1ccccc1 | > 100 µM | 52.1 µM | > 64 µM | > 64 µM | 20.5 µM | > 64 µM | – | –
N=C(N)NCCC[C@H](NC(=O)OCc1ccccc1)C(=O)c1ccccn1 | 62 µM | > 64 µM | > 64 µM | > 64 µM | > 64 µM | > 64 µM | Active | –
N=C(N)NCCC[C@@H](/C=C/S(=O)(=O)c1ccccc1)NC(=O)OCc1ccccc1 | 3.9 µM | 45.3 µM | 19 µM | > 64 µM | 3.4 µM | > 64 µM | – | –
N#C[C@H](Cc1ccc(NC(=N)N)cc1)NC(=O)OCc1ccccc1 | > 100 µM | > 64 µM | 27.2 µM | > 64 µM | 25.4 µM | > 64 µM | – | –
N#CCN(CCCCN1CCN(C(c2ccc(F)cc2)c2ccc(F)cc2)CC1)C(=O)OCc1ccccc1 | > 100 µM | 2.1 µM | 2.6 µM | 5.9 µM | 7.6 µM | 11.3 µM | – | –
N#C[C@H](Cc1ccc(N)cc1)NC(=O)OCc1ccccc1 | > 100 µM | 30.3 µM | 28.6 µM | > 64 µM | 16.6 µM | > 64 µM | – | –
CC(C)CC(NC(=O)OCc1ccccc1)C(=O)N[C@@H](CCCNC(=N)N)C(=O)c1nc2ccccc2s1 (some centres not stated) | 1.4 µM | 5.7 µM | 5.6 µM | 36.8 µM | 2.6 µM | 29 µM | – | –
N#CCN(CCCCn1ccnc1)C(=O)OCc1ccccc1 | > 100 µM | > 64 µM | 35.7 µM | > 64 µM | 17.2 µM | > 64 µM | – | –
N#CCN(C(=O)OCc1ccccc1)C1CCNCC1 | > 100 µM | 32.5 µM | 34.6 µM | > 64 µM | 28 µM | > 64 µM | – | –
CC(C)C(NC(=O)OCc1ccccc1)C(=O)N[C@@H](CCCNC(=N)N)C(=O)c1nc2ccccc2s1 (some centres not stated) | 1.1 µM | 11.2 µM | 7.3 µM | > 64 µM | 3.3 µM | 32.6 µM | – | –
N#C[C@H](CCCNC(=N)N)NC(=O)OCc1ccccc1 | 1.9 µM | > 64 µM | > 64 µM | > 64 µM | 50.2 µM | > 64 µM | Active | inactive
NCCCC[C@H](NC(=O)OCc1ccccc1)C(=O)c1nc2ccccc2s1 | 1.6 µM | 10.6 µM | 10.8 µM | 22.8 µM | 3 µM | 20 µM | – | –
N#CCN(CCCCN1CCCCC1)C(=O)OCc1ccccc1 | > 100 µM | > 64 µM | > 64 µM | > 64 µM | 6.9 µM | > 64 µM | – | –
